Tests used:
Format in all cases: cell-based
[1] = biological target: T1, PTGER2 (EP2) (Homo sapiens, UniProt P43116); assay: hEP2 b-Arrestin Assay (PathHunter HEK 293 PTGER2 b-arrestin cells, PGE2 5 μM); conditions: antagonistic activity, beta-arrestin assay, HEK 293 PTGER2 cells, PGE2 5 μM (EC80); read-out: hEP2 b-arr IC50
T1 construct: host or cells: HEK 293 (PathHunter, stably transfected)
Experimental: The antagonistic activities of the compounds of formula (I) on the EP2 and EP4 receptors are also determined in accordance with the following experimental method.
The assay is using the PathHunter™ HEK 293 PTGER2 and PTGER4 b-arrestin cell lines from DiscoverX. The system is based on the Enzyme Fragment Complementation Technology. Two complementing fragments of the b-galactosidase enzyme are expressed within stably transfected cells. The larger portion of b-gal, termed EA for Enzyme Acceptor, is fused to the C-terminus of b-arrestin 2. The smaller fragment, termed ProLink™ tag, is fused to PTGER2 (EP2) or PTRGER4 (EP4) at the C-terminus. Upon activation, b-arrestin is recruited which forces the interaction of ProLink and EA, allowing complementation of the two fragments of b-gal and the formation of a functional enzyme which is capable of hydrolysing the substrate and generating a chemiluminescent signal.
The HEK 293 PTGER2 b-arrestin cells (DiscoverX 93-021-4C1) are detached from culture dishes with a cell dissociation buffer (Invitrogen, 13151-014), and collected in growing medium (GM: DMEM+Glutamax-I (Invitrogen 32430)/10% FCS, 1% Penicilin/streptomycin). 5000 cells per well of a 384 well plate (white with white bottom Greiner 781080) are seeded in 20 μl per well of GM. Plate is incubated at 37° C., 5% CO2 for 24 hours.
Stock solutions of test compounds are made at a concentration of 10 mM in DMSO, and serially diluted in DMSO to concentrations required for inhibition dose response curves (tested concentration range 10 μM-2 nM or 1 μM-0.2 nM).
PGE2 (Cayman 14010, stock solution: 10 mM in DMSO) is used as agonist at 5 μM final concentration, corresponding to EC80.
Five microliters of diluted compounds are transferred into the assay plate. Plate is pre-incubated 15 minutes at 37° C. Then five microliters of PGE2 (final conc. 5 μM) are transferred into the assay plate. Plate is incubated 120 minutes at 37° C.
PathHunter Glo Detection Kit components are thawed and mix according to manufacturer's instructions: 1 part Galacton Star Substrate with 5 parts Emerald II™ Solution, and 19 parts of PathHunter Cell Assay Buffer, respectively. Twelve μl of reagent are transferred to the assay plate and incubate for 1 hour at room temperature in the dark. Luminescence counts are read on a BMG Fluostar Optima reader according to manufacturer's instructions.
For each compound concentration calculate of the percentage of activity compared to DMSO control value as average ±STDEV. (each concentration is measured in duplicate)
IC50 values and curves are generated with XLfit software (IDBS) using Dose-Response One Site model 203. When compounds were measured multiple times, mean values are given.

[2] = biological target: T2, EP2 (Homo sapiens, UniProt P43116); assay: hEP2 cAMP Assay (SF295 glioblastoma cells, HTRF cAMP, PGE2 75 nM); conditions: antagonistic activity, PGE2 75 nM (EC80)
T2 construct: SF295 glioblastoma cells express high endogenous EP2 and no EP4; host or cells: SF295 glioblastoma cells
T2 sequence (P43116 whole entry): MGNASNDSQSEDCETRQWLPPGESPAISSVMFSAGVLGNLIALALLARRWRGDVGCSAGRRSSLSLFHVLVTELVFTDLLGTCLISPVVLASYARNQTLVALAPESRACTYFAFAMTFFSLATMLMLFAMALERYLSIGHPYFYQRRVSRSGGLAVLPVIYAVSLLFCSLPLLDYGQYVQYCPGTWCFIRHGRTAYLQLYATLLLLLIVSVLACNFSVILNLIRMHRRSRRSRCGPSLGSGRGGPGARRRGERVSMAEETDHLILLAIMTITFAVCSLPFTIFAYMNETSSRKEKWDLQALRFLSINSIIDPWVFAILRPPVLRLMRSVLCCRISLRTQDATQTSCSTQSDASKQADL
In short: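 IC50 values derive from duplicate-point curves of percent cAMP relative to DMSO, read by HTRF (665/620 nm) against a cAMP calibrator. Compounds (30 μM to 0.01 nM ranges) were given 45 min at room temperature before 30 min with 75 nM PGE2, in EP2-only SF295 cells with 2 mM IBMX.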

[3] = biological target: T3, EP4 (Homo sapiens, UniProt P35408); assay: hEP4 cAMP Assay (BT549 breast cancer cells, HTRF cAMP, PGE2 6 nM); conditions: antagonistic activity, PGE2 6 nM (EC80)
T3 construct: BT549 breast cancer cells, express high endogenous EP4 levels and very low EP2 levels; host or cells: BT549 breast cancer cells
T3 sequence (P35408 whole entry): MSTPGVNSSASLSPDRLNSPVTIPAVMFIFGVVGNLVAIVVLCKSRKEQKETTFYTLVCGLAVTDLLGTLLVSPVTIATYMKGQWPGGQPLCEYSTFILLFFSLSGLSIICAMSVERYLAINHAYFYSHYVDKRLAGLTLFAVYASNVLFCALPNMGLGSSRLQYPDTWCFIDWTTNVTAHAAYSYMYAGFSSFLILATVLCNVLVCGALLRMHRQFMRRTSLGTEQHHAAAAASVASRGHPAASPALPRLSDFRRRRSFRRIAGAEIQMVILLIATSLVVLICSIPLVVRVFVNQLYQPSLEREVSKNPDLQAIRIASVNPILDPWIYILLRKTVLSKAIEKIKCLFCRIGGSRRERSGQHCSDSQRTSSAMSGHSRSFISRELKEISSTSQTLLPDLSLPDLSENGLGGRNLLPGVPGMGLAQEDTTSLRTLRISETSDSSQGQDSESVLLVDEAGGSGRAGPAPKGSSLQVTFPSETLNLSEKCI
In short: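 BT549 cells (endogenous EP4, very low EP2) in HBSS/20 mM HEPES/0.2% BSA/2 mM IBMX, pre-incubated 45 min RT with compound, then stimulated 30 min RT with PGE2 6 nM (EC80). cAMP read by HTRF competitive immunoassay (665/620 nm), converted via calibrator to % of DMSO control; IC50 from duplicate dose-response curves.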

T1 sequence (P43116 whole entry): as the sequence (P43116 whole entry) above

IC50 [1] [nM]	IC50 [2] [nM]	IC50 [3] [nM]	SMILES
62	41	308	COc1ccc2ccccc2c1CCNc1cc(-c2ccc(C(=O)O)c(CC(C)C)c2)ncn1 [Example 122, 2-Isobutyl-4-{6-[2-(2-methoxy-naphthalen-1-yl)-ethylamino]-pyrimidin-4-yl}-benzoic acid]
132	218	355	CCOc1cc(-c2cc(NCCc3c(F)ccc4ccccc34)ncn2)ccc1CC(=O)O [Example 97, (2-Ethoxy-4-{6-[2-(2-fluoro-naphthalen-1-yl)-ethylamino]-pyrimidin-4-yl}-phenyl)-acetic acid]
13	27	546	COc1ccc2ccccc2c1CCNc1cc(-c2cc3cc(C(=O)O)ccc3[nH]2)ncn1 [Example 130, 2-{6-[2-(2-Methoxy-naphthalen-1-yl)-ethylamino]-pyrimidin-4-yl}-1H-indole-5-carboxylic acid]
128	129	619	CCOc1cc(-c2cc(NCCc3cccc4ccsc34)ncn2)ccc1C(=O)O [Example 101, 4-[6-(2-Benzo[b]thiophen-7-yl-ethylamino)-pyrimidin-4-yl]-2-ethoxy-benzoic acid]
350	227	714	CCOc1cc(-c2cc(NCCc3c(OC)ccc4ncccc34)ncn2)ccc1OCC(=O)O [Example 66, (2-Ethoxy-4-{6-[2-(6-methoxy-quinolin-5-yl)-ethylamino]-pyrimidin-4-yl}-phenoxy)-acetic acid]
224	35	492	Cc1ccc2c(cnn2C)c1CCNc1cc(-c2ccc3ncccc3c2)ncn1 [Example 114, [2-(1,5-Dimethyl-1H-indazol-4-yl)-ethyl]-(6-quinolin-6-yl-pyrimidin-4-yl)-amine]
47	27	459	COc1ccc2ncccc2c1CCNc1cc(-c2ccc(-c3nnc(N)s3)cc2)ncn1 [Example 113, {6-[4-(5-Amino-[1,3,4]thiadiazol-2-yl)-phenyl]-pyrimidin-4-yl}-[2-(6-methoxy-quiolin-5-yl)-ethyl]-amine]
87	15	289	COc1ccc2ccccc2c1CCNc1cc(-c2cc3c(C(=O)O)cccc3[nH]2)ncn1 [Example 129, 2-{6-[2-(2-Methoxy-naphthalen-1-yl)-ethylamino]-pyrimidin-4-yl}-1H-indole-4-carboxylic acid]
36	36	427	CCOc1cc(-c2cc(NCCc3c(F)ccc4ccccc34)ncn2)ccc1C(=O)O [Example 93, 2-Ethoxy-4-{6-[2-(2-fluoro-naphthalen-1-yl)-ethylamino]-pyrimidin-4-yl}-benzoic acid]
31	29	550	CCCc1cc(-c2cc(NCCc3c(OC)ccc4ccccc34)ncn2)cc(F)c1C(=O)O [Example 123, 2-Fluoro-4-{6-[2-(2-methoxy-naphthalen-1-yl)-ethylamino]-pyrimidin-4-yl}-6-propyl-benzoic acid]
129	93	646	CCOc1cc(-c2cc(NCCc3ccc(F)c4ccccc34)ncn2)ccc1C(=O)O [Example 19, 2-Ethoxy-4-{6-[2-(4-fluoro-naphthalen-1-yl)-ethylamino]-pyrimidin-4-yl}-benzoic acid]
50	171	855	CCOc1cc(-c2cc(NCCc3c(C)ccc4c3cnn4C)ncn2)ccc1O [Example 111, 4-{6-[2-(1,5-Dimethyl-1H-indazol-4-yl)-ethylamino]-pyrimidin-4-yl}-2-ethoxy-phenol]
119	89	428	COc1ccc2ncccc2c1CCNc1cc(-c2ccc(-c3cc(O)no3)cc2)ncn1 [Example 83, 5-(4-{6-[2-(6-Methoxy-quinolin-5-yl)-ethylamino]-pyrimidin-4-yl}-phenyl)-isoxazol-3-ol]
22	147	729	CCOc1cc(-c2cc(NCCc3c(C)ccc4ccccc34)ncn2)ccc1OCC(=O)O [Example 48, (2-Ethoxy-4-{6-[2-(2-methyl-naphthalen-1-yl)-ethylamino]-pyrimidin-4-yl}-phenoxy)-acetic acid]
245	95	493	Cc1ccc2c(cnn2C)c1CCNc1cc(-c2ccc3ccncc3c2)ncn1 [Example 115, [2-(1,5-Dimethyl-1H-indazol-4-yl)-ethyl]-(6-isoquinolin-7-yl-pyrimidin-4-yl)-amine]
177	77	674	CCOc1cc(-c2cc(NCCc3c(C)ccc4cnccc34)ncn2)ccc1OCC(=O)O [Example 86, (2-Ethoxy-4-{6-[2-(6-methyl-isoquinolin-5-yl)-ethylamino]-pyrimidin-4-yl}-phenoxy)-acetic acid]

SMILES	IC50 [1] [nM]	IC50 [2] [nM]	IC50 [3] [nM]
COc1ccc2c(C)ccnc2c1CCNc1cc(-c2ccc(C(=O)O)c(OC3CCC3)c2)ncn1 [Example 87, 2-Cyclobutoxy-4-{6-[2-(7-methoxy-4-methyl-quinolin-8-yl)-ethylamino]-pyrimidin-4-(C)yl}-benzoic acid]	70	103	850
O=C(O)c1ccc(-c2cc(NCCc3cccc4sccc34)ncn2)cc1OC1CCC1 [Example 107, 4-[6-(2-Benzo[b]thiophen-4-yl-ethylamino)-pyrimidin-4-yl]-2-cyclobutoxy-benzoic acid]	149	250	267
O=C(O)c1ccc(-c2cc(NCCc3c(F)ccc4ccccc34)ncn2)cc1OC1CCC1 [Example 94, 2-Cyclobutoxy-4-{6-[2-(2-fluoro-naphthalen-1-yl)-ethylamino]-pyrimidin-4-yl}-benzoic acid]	34	53	368
Cc1ccc2cnccc2c1CCNc1cc(-c2ccc(C(=O)O)c(OC3CCC3)c2)ncn1 [Example 84, 2-Cyclobutoxy-4-{6-[2-(6-methyl-isoquinolin-5-yl)-ethylamino]-pyrimidin-4-yl}-benzoic acid]	149	179	989
CCCCOc1cc(-c2cc(NCCc3c(OC)ccc4ccccc34)ncn2)cc(F)c1C(=O)O [Example 124, 2-Butoxy-6-fluoro-4-{6-[2-(2-methoxy-naphthalen-1-yl)-ethylamino]-pyrimidin-4-yl}-benzoic acid]	35	100	446
Cc1ccc(CCNc2cc(-c3ccc(C(=O)O)c(OC4CCC4)c3)ncn2)c2ccccc12 [Example 17, 2-Cyclobutoxy-4-{6-[2-(4-methyl-naphthalen-1-yl)-ethylamino]-pyrimidin-4-yl}-benzoic acid]	95	281	270
O=C(O)c1ccc(-c2cc(NCCc3cccc4ccccc34)ncn2)cc1OC1CCC1 [Example 8, 2-Cyclobutoxy-4-[6-(2-naphthalen-1-yl-ethylamino)-pyrimidin-4-yl]-benzoic acid]	71	133	568
COc1ccc2ncccc2c1CCNc1cc(-c2ccc(C(=O)O)c(OC3CCC3)c2)ncn1 [Example 64, 2-Cyclobutoxy-4-{6-[2-(6-methoxy-quinolin-5-yl)-ethylamino]-pyrimidin-4-yl}-benzoic acid]	106	80	872
